The source of these data is ChEMBL document CHEMBL1212867, “Anhydrotetracycline-peptide conjugates as representatives for ligand-based transactivating systems” (Bioorg Med Chem, 2010).

The subject of assay [1] is HeLa. Kind of assay: Transactivation of Reverse transactivator Tet repressor-S3 SL439, FG442, SL444 and FA475 mutant expressed in human HeLa cells at 5 uM after 24 hrs by luciferase reporter gene assay relative to untreated basal level. Format: cell-based.
The test system of assay [2] is HeLa. Nature of the assay: Transactivation of reverse transactivator Tet repressor-S3 expressed in human HeLa cells at 5 uM after 24 hrs by luciferase reporter gene assay relative to anhydrotetracycline. Format: cell-based.

Non-standard residues stand in square brackets, D forms with d. Residues, ends and D or L forms follow the SMILES beside them. *: point of attachment. X1 = Cc1c2c(c(O)c3c(O)c(N*)ccc13)C(=O)[C@]1(O)C(=O)C(C(N)=O)=C(O)[C@@H](N(C)C)[C@@H]1C2; AEEEA = NCCOCCOCCOCC(=O)O

Compound `Cc1c2c(c(O)c3c(O)cccc13)C(=O)[C@]1(O)C(=O)C(C(N)=O)=C(O)[C@@H](N(C)C)[C@@H]1C2` yielded a fold change (FC) in assay [1] of 3. As to `CSCC[C@H](NC(=O)[C@H](CC(=O)O)NC(=O)[C@H](CC(C)C)NC(=O)[C@H](CC(=O)O)NC(=O)[C@H](Cc1ccccc1)NC(=O)[C@@H](N)CC(=O)O)C(=O)N[C@@H](CC(C)C)C(=O)NCC(=O)NCCOCCOCCOCC(=O)Nc1ccc2c(C)c3c(c(O)c2c1O)C(=O)[C@]1(O)C(=O)C(C(N)=O)=C(O)[C@@H](N(C)C)[C@@H]1C3` (H-DFDLDMLG[AEEEA]-X1), the Activity in assay [2] is 150%.

Turning to `CSCC[C@H](NC(=O)[C@H](CC(=O)O)NC(=O)[C@H](CC(C)C)NC(=O)[C@H](CC(=O)O)NC(=O)[C@H](Cc1ccccc1)NC(=O)[C@H](CC(=O)O)NC(=O)CNC(=O)[C@H](CC(C)C)NC(=O)[C@H](CCSC)NC(=O)[C@H](CC(=O)O)NC(=O)[C@H](CC(C)C)NC(=O)[C@H](CC(=O)O)NC(=O)[C@H](Cc1ccccc1)NC(=O)[C@H](CC(=O)O)NC(=O)COCCOCCOCCN)C(=O)N[C@@H](CC(C)C)C(=O)NCC(=O)NCCOCCOCCOCC(=O)Nc1ccc2c(C)c3c(c(O)c2c1O)C(=O)[C@]1(O)C(=O)C(C(N)=O)=C(O)[C@@H](N(C)C)[C@@H]1C3` (H-[AEEEA]DFDLDMLGDFDLDMLG[AEEEA]-X1), the fold change (FC) in assay [1] is 9. The compound further yielded an Activity in assay [2] of 190%.
